The Kd is the concentration at which binding is half-saturated.

This is an account of results in PMC4837341, “Drug target identification using network analysis: Taking active components in Sini decoction as an example” (Scientific Reports, 2016).

The target in this test is T1, TNF-α (recombinant mouse TNF-α) (Mus musculus, UniProt P06804).
T1 construct: recombinant, purchased from Sigma; amine-coupled to CM5 chip
T1 sequence (P06804 80-235): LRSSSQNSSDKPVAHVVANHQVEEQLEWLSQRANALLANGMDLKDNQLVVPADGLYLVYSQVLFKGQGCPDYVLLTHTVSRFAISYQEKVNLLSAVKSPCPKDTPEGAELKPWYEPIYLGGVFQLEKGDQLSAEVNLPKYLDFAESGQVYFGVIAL
Kind of test: SPR (BIAcore T200, TNF-α immobilised on CM5, […] model). It counts as binding. Background: SPR reads the build-up and loss of mass on a sensor chip optically.

As for `O=c1c(O)c(-c2ccc(O)c(O)c2)oc2cc(O)cc(O)c12` [H11, Quercetin], the Kd amounted to 35 µM.

Turning to `Oc1ccc(CC2NCCc3cc(O)c(O)cc32)cc1` (centres unmarked) [S39, Higenamine], the Kd turned out to be 67 µM.
